In patent US6653300B2, “Pyrazole compounds useful as protein kinase inhibitors” (Vertex Pharmaceuticals Incorporated, priority 2000, dated 2003):

Tests used:
[1] = molecular target: T1, GSK-3β (AA 1-420) (Homo sapiens, UniProt P49841); test: Ki determination for the inhibition of GSK-3 (coupled enzyme system); assay type: biochemical; conditions: 20 μM ATP, 20 nM GSK-3β, 30° C.
T1 construct: GSK-3β (AA 1-420)
Protocol: Compounds were screened for their ability to inhibit GSK-3β (AA 1-420) activity using a standard coupled enzyme system (Fox et al. (1998) Protein Sci. 7, 2249). Reactions were carried out in a solution containing 100 mM HEPES (pH 7.5), 10 mM MgCl2, 25 mM NaCl, 300 μM NADH, 1 mM DTT and 1.5% DMSO. Final substrate concentrations in the assay were 20 μM ATP (Sigma Chemicals, St Louis, Mo.) and 300 μM peptide (HSSPHQS (PO3H2) EDEEE, American Peptide, Sunnyvale, Calif.). Reactions were carried out at 30° C. and 20 nM GSK-3β. Final concentrations of the components of the coupled enzyme system were 2.5 mM phosphoenolpyruvate, 300 μM NADH, 30 μg/ml pyruvate kinase and 10 μg/ml lactate dehydrogenase.
An assay stock buffer solution was prepared containing all of the reagents listed above with the exception of ATP and the test compound of interest. The assay stock buffer solution (175 μl) was incubated in a 96 well plate with 5 μl of the test compound of interest at final concentrations spanning 0.002 μM to 30 μM at 30° C. for 10 min. […] The reaction was initiated by the addition of 20 μl of ATP (final concentration 20 μM). Rates of reaction were obtained using a Molecular Devices Spectramax plate reader (Sunnyvale, Calif.) over 10 min at 30° C. The Ki values were determined from the rate data as a function of inhibitor concentration.

T1 sequence (P49841 whole entry, the tested form may be a part): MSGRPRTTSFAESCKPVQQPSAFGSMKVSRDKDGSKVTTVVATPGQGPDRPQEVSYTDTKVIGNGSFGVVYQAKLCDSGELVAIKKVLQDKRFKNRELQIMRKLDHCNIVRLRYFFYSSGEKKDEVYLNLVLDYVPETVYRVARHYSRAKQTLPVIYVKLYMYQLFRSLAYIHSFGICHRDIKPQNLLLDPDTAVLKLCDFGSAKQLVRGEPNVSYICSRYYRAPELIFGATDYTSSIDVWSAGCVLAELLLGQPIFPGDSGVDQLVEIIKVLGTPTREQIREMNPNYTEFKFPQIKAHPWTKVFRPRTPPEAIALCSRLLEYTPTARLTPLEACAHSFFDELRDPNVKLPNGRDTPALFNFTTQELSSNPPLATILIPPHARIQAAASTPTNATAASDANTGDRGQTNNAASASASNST

| SMILES | melting point | Ki [1] |
| --- | --- | --- |
| c1ccc(Nc2nc(Nc3cc(C4CC4)[nH]n3)cc(-c3ccccc3)n2)cc1 [IIIc-2, (5-Cyclopropyl-2H-pyrazol-3-yl)-(6-phenyl-2-phenylamino-pyrimidin-4-yl)-amine] | 267 to 269 °C | – |
| Cc1cc(Nc2cc(-c3ccccc3)nc(Oc3ccc(NC(=O)C(C)C)cc3)n2)n[nH]1 [IIIb-13] | – | < 100 nM |
| CC(=O)Nc1ccc(Sc2nc(Nc3cc(C)n[nH]3)c3cccc(F)c3n2)cc1 [IIa-78, [2-(4-Acetamidophenylsulfanyl)-8-fluoro-quinazolin-4-yl]-(5-methyl-2H-pyrazol-3-yl)-amine] | 257 to 259 °C | – |
| COCc1cc(Nc2cc(C)[nH]n2)nc(Nc2ccc(Cl)cc2)n1 [IIIc-21, [2-(4-Chlorophenyl)amino-6-methoxymethyl-pyrimidin-4-yl]-(5-methyl-2H-pyrazol-3-yl)-amine] | – | < 100 nM |
| CCC(=O)Nc1ccc(Sc2nc(COC)cc(Nc3cc(C)[nH]n3)n2)cc1 [IIIa-38, [6-Methoxymethyl-2-(4-propionylamino-phenyl-sulfanyl)-pyrimidin-4-yl]-(5-methyl-2H-pyrazol-3-yl)-amine] | – | 1000 to 7000 nM |
| CCC(=O)Nc1ccc(Sc2nc(CO)cc(Nc3cc(C)n[nH]3)n2)cc1 [IIIa-45, [6-Hydroxymethyl-2-(4-propionylamino-phenyl-sulfanyl)-pyrimidin-4-yl]-(5-methyl-2H-pyrazol-3-yl)-amine] | – | 1000 to 7000 nM |
| Cc1cc(Nc2nc(Nc3ccc(Cl)cc3)nc3c2CCCC3)n[nH]1 [IIc-78, [2-(4-Chlorophenylamino)-5,6,7,8-tetrahydroquinazolinin-4-yl]-(5-methyl-2H-pyrazol-3-yl)-amine] | – | < 100 nM |
| Cc1cc(Nc2nc(Sc3nc4ccccc4[nH]3)nc3ccccc23)n[nH]1 [IIa-19, [2-(Benzimidazol-2-ylsulfanyl)-quinazolin-4-yl]-(5-methyl-2H-pyrazol-3-yl)-amine] | 192 to 196 °C | – |
| Cc1cc(Nc2nc(Nc3ccccc3)nc3c2CCCC3)n[nH]1 [IIc-45, (5-Methyl-2H-pyrazol-3-yl)-(2-phenylamino-5,6,7,8-tetrahydroquinazolinin-4-yl)-amine] | – | 100 to 1000 nM |
| Cc1cc(Nc2cc(N3CCN(C)CC3)nc(SCc3cccc(Cl)c3)n2)n[nH]1 [IIIa-30, [2-(3-Chloro-benzylsulfanyl)-6-(4-methylpiperazin-1-yl)-pyrimidin-4-yl]-(5-methyl-2H-pyrazol-3-yl)-amine] | – | 100 to 1000 nM |
| Cc1cc(Nc2nc(C(C)(C)c3ccccc3)nc3c2CCCCC3)n[nH]1 [IId-14] | – | < 100 nM |
| FC(F)(F)c1ccc(Nc2nc(Nc3n[nH]c4ccccc34)c3ccccc3n2)cc1 [IIc-72, (1H-Indazol-3-yl)-[2-(4-trifluoromethylphenylamino)-quinazolin-4-yl]-amine] | – | 100 to 1000 nM |
| Cc1cc(Nc2nc(Nc3ccccc3)nc(C)c2C)n[nH]1 [IIIc-20, (5,6-Dimethyl-2-phenylamino-pyrimidin-4-yl)-(5-methyl-2H-pyrazol-3-yl)-amine] | – | 100 to 1000 nM |
| COc1cc(CSc2nc(Nc3cc(C)[nH]n3)cc(N3CCCC3)n2)cc(OC)c1 [IIIa-41, [2-(3,5-Dimethoxy-benzylsulfanyl)-6-pyrrolidin-4-yl-pyrimidin-4-yl]-(5-methyl-2H-pyrazol-3-yl)-amine] | – | 1000 to 7000 nM |
| N#CCc1ccc(Nc2nc(Nc3n[nH]c4ccccc34)c3ccccc3n2)cc1 [IIc-77, [2-(4-Cyanomethylphenylamino)-quinazolin-4-yl]-(1H-indazol-3-yl)-amine] | – | < 100 nM |
| COc1cc(-c2cc(Nc3cc(C)[nH]n3)nc(Nc3ccc(S(N)(=O)=O)cc3)n2)cc(OC)c1OC [IIIc-8, (5-Methyl-2H-pyrazol-3-yl)-[2-(4-sulfamoylphenylamino)-6-(3,4,5-trimethoxyphenyl)-pyrimidin-4-yl]-amine] | – | 100 to 1000 nM |
| Cc1cc(Nc2cc(C)[nH]n2)nc(C(C)(C)c2ccccc2)n1 [IIId-21] | – | < 100 nM |
| Cc1cc(Nc2cc(N3CCOCC3)nc(SCc3ccc(S(=O)(=O)N4CCOCC4)cc3)n2)n[nH]1 [IIIa-35, (5-Methyl-2H-pyrazol-3-yl)-{2-[4-(morpholinesulfonyl)-benzylsulfanyl]-6-morpholin-4-yl-pyrimidin-4-yl}-amine] | – | 1000 to 7000 nM |
| Fc1ccc2[nH]nc(Nc3nc(C4CC4c4ccccc4)nc4ccccc34)c2c1 (stereo not shown) [IId-18, (5-Fluoro-1H-indazol-3-yl)-[2-(2-phenyl-cyclopropyl)-quinazolin-4-yl]-amine] | – | 100 to 1000 nM |
| c1ccc(Nc2nc(Nc3n[nH]c4ccccc34)c3ccccc3n2)cc1 [IIc-70, (1H-Indazol-3-yl)-(2-phenylamino-quinazolin-4-yl)-amine] | – | 1000 to 7000 nM |

| SMILES | melting point | Ki [1] |
| --- | --- | --- |
| c1ccc(C2CC2c2nc(Nc3n[nH]c4ccccc34)c3ccccc3n2)cc1 (stereo not shown) [IId-16, (1H-Indazol-3-yl)-[2-(2-phenyl-cyclopropyl)-quinazolin-4-yl]-amine] | – | 100 to 1000 nM |
| Cc1cc(Nc2nc(Nc3ccccc3)nc3c2CCCCC3)n[nH]1 [IIc-79, (5-Methyl-2H-pyrazol-3-yl)-(2-phenylamino-6,7,8,9-tetrahydro-5H-cycloheptapyrimidin-4-yl)-amine] | – | 100 to 1000 nM |
| CC(=O)Nc1ccc(Oc2nc(Nc3cc(C)[nH]n3)cc(-c3ccccc3)n2)cc1 [IIIb-11] | – | 100 to 1000 nM |
| COc1ccc(CSc2nc(Nc3cc(C)[nH]n3)cc(N3CCN(C)CC3)n2)cc1 [IIIa-31, [2-(4-methoxy-benzylsulfanyl)-6-(4-methylpiperazin-1-yl)-pyrimidin-4-yl]-(5-methyl-2H-pyrazol-3-yl)-amine] | – | 100 to 1000 nM |
| Cc1cc(Nc2nc(C3CC3c3ccccc3)nc3ccccc23)n[nH]1 (stereo not shown) [IId-19, (5-Methyl-1H-pyrazol-3-yl)-[2-(2-phenyl-cyclopropyl)-quinazolin-4-yl]-amine] | – | < 100 nM |
| CNC(=O)c1cc(Nc2cc(C)[nH]n2)nc(Sc2ccc(NC(C)=O)cc2)n1 [IIIa-49] | – | 1000 to 7000 nM |
| Fc1cccc2c(Nc3nc(C4CC4c4ccccc4)nc4ccccc34)n[nH]c12 (stereo not shown) [IId-17, (7-Fluoro-1H-indazol-3-yl)-[2-(2-phenyl-cyclopropyl)-quinazolin-4-yl]-amine] | – | 100 to 1000 nM |
| Cc1cc(Nc2cc(-c3ccccc3)[nH]n2)nc(Nc2nc3ccccc3[nH]2)n1 [IIIc-16, [2-(Benzimidazol-2-ylamino)-6-methyl-pyrimidin-4-yl]-(5-phenyl-2H-pyrazol-3-yl)-amine] | – | 1000 to 7000 nM |
| CC(=O)Nc1ccc(Sc2nc(Nc3cc(C)[nH]n3)cc(-c3ccccc3)n2)cc1 [IIIa-11, [2-(4-Acetamido-phenylsulfanyl)-6-phenyl-pyrimidin-4-yl]-(5-methyl-2H-pyrazol-3-yl)-amine] | – | 100 to 1000 nM |
| Cc1cc(Nc2cc(N3CCN(C)CC3)nc(SCc3ccccc3)n2)n[nH]1 [IIIa-28, [2-Benzylsulfanyl-6-(4-methylpiperazin-1-yl)-pyrimidin-4-yl]-(5-methyl-2H-pyrazol-3-yl)-amine] | – | 1000 to 7000 nM |
| Cc1cc(Nc2cc(-c3ccco3)[nH]n2)nc(Nc2nc3ccccc3[nH]2)n1 [IIIc-17, [2-(Benzimidazol-2-ylamino)-6-methyl-pyrimidin-4-yl]-[5-(Furan-2-yl)-2H-pyrazol-3-yl]-amine] | – | 1000 to 7000 nM |
| Cc1cc(Nc2cc(C)[nH]n2)nc(Nc2ccccc2)n1 [IIIc-24, (6-Methyl-2-phenylamino-pyrimidin-4-yl)-(5-methyl-2H-pyrazol-3-yl)-amine] | – | < 100 nM |
| COCc1cc(Nc2cc(C)[nH]n2)nc(Nc2ccccc2)n1 [IIIc-23, (6-Methoxymethyl-2-phenylamino-pyrimidin-4-yl)-(5-methyl-2H-pyrazol-3-yl)-amine] | – | 100 to 1000 nM |
| CCC(=O)Nc1ccc(Sc2nc(Nc3cc(C)[nH]n3)cc(-c3ccccc3)n2)cc1 [IIIa-15, (5-Methyl-2H-pyrazol-3-yl)-[6-phenyl-2-(4-propionylamino-phenylsulfanyl)-pyrimidin-4-yl]-amine] | – | 1000 to 7000 nM |
| Cc1cc(Nc2cc(-c3ccccc3)nc(Nc3ccccc3)n2)n[nH]1 [IIIc-1, (5-Methyl-2H-pyrazol-3-yl)-(6-phenyl-2-phenylamino-pyrimidin-4-yl)-amine] | – | 100 to 1000 nM |
| Cc1cc(Nc2nc(Nc3ccc(Cl)cc3)nc(C)c2C)n[nH]1 [IIIc-19, [2-(4-Chlorophenyl)amino-5,6-dimethyl-pyrimidin-4-yl]-(5-methyl-2H-pyrazol-3-yl)-amine] | – | < 100 nM |
| Cc1cc(Nc2cc(C)[nH]n2)nc(Nc2ccc(Cl)cc2)n1 [IIIc-18, [2-(4-Chlorophenylamino)-6-methyl-pyrimidin-4-yl]-(5-methyl-2H-pyrazol-3-yl)-amine] | – | < 100 nM |
| COCc1cc(Nc2cc(C)[nH]n2)nc(Nc2nc3ccccc3[nH]2)n1 [IIIc-22, [2-(Benzimidazol-2-ylamino)-6-methoxymethyl-pyrimidin-4-yl]-(5-methyl-2H-pyrazol-3-yl)-amine] | – | 1000 to 7000 nM |
| Cc1cc(Nc2cc(N3CCOCC3)nc(SCc3ccccc3)n2)n[nH]1 [IIIa-29, [2-Benzylsulfanyl-6-morpholin-4-yl-pyrimidin-4-yl]-(5-methyl-2H-pyrazol-3-yl)-amine] | – | 100 to 1000 nM |
| Cc1cc(Nc2cc(-c3ccccc3)nc(Oc3ccc4ccccc4c3)n2)n[nH]1 [IIIb-12] | – | 100 to 1000 nM |
